≈ marks a conversion by molar mass, not a printed value. Where two headings read alike, the source gives them in different places. Each block holds one molecule with its values, some of them ahead of it.
What was measured:
CDK4/cyclin D1 = target: T1, CDK4/cyclin D1 (Homo sapiens, UniProt P11802); experiment: Enzyme activity assay CDK4/cyclin D1 (Lance Ultra); type: biochemical; details: 0.3 nM CDK4/cyclin D1, 350 μM ATP, 180 minutes
T1 construct: purchased Life technology
Protocol: (§1) CDK4/cyclin D1, CDK6/cyclin D1 (Life technology). ULight labeled polypeptide substrates ULight-4E-BP1 and ULight-MBP (PerkinElmer). Europium labeled anti-myelin basic protein antibody and europium labeled rabbit-derived antibody (PerkinElmer). Envision Multi-label Analyzer (PerkinElmer) for signal detection.
(§2) They were respectively dissolved in an enzyme buffer solution comprising: 50 mM hydroxyethylpiperazine ethanesulfuric acid solution at pH 7.5, 1 mM ethylenediaminetetraacetic acid, 10 mM magnesium chloride, 0.01% Brij-35, 2 mM dithiothreitol. After the reaction was begun, the OptiPlate 384-well plate was sealed with a top heat seal film TopSeal-A, and incubated at room temperature for 180 minutes.
(§3) The termination buffer solution of the enzymatic reaction was prepared, and EDTA was dissolved in a 1-fold diluted assay buffer solution. The reaction was terminated and incubated at room temperature for 5 minutes. 5 μL of the assay mixed solution (prepared with europium labeled anti-myelin basic protein antibody and europium labeled rabbit-derived antibody, respectively) was added to the reactions of CDK4/cyclin D1 and CDK6/cyclin D1, respectively, and incubated at room temperature for 60 minutes. The reaction signal was detected by Envision according to the time-resolved fluorescence resonance energy transfer theory.

CDK6/cyclin D1 = target: T2, CDK6/cyclin D1 (Homo sapiens, UniProt Q00534); experiment: Enzyme activity assay CDK6/cyclin D1 (Lance Ultra); type: biochemical; details: 0.8 nM CDK6/cyclin D1, 250 μM ATP, 180 minutes
T2 construct: purchased Life technology
T2 sequence (Q00534 whole entry): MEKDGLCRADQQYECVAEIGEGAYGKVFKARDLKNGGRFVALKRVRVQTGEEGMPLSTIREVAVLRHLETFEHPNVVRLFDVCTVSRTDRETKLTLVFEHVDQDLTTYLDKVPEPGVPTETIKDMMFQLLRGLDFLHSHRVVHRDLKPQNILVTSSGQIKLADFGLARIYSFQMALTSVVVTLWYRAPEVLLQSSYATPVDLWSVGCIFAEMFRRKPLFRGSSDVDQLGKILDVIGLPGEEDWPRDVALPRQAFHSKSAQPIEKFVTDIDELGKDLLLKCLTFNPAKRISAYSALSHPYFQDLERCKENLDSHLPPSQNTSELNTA
T2 sequence (P24385 whole entry partner): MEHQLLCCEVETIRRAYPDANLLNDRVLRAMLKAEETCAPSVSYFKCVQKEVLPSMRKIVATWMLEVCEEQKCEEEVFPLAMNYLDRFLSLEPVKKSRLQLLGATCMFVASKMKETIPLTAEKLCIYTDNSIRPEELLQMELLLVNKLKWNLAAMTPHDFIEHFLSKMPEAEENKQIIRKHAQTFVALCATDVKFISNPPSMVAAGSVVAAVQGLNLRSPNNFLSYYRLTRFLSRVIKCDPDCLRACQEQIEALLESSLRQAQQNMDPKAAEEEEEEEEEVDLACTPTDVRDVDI
Protocol: as §1
as §2, with “started,” for “begun,”, “TopSeal-A” for “TopSeal-A,”
as §3

NCI-H358 cells = experiment: Cell viability assay NCI-H358 (CellTiter-Glo); type: cell-based; details: Homo sapiens, 168 h; NCI-H358, incubated for 7 days
Protocol: The NCI-H358 cell line is from the cell bank of the Department of Biology of WuXi Apptec Co. Ltd. Envision Multi-Label Analyzer (PerkinElmer).
1) 100 μL of phosphate buffer solution was added to the peripheral wells of the 384-well plate and 40 μL of NCI-H358 cell suspension was added to the other wells containing 250 NCI-H358 cells. The cell plate was then placed in a carbon dioxide incubator and incubated overnight.
2) A 3-fold gradient dilution was subjected to the tested compounds using Echo. Each compound was diluted by 10 concentration gradients (diluted from 25 μM to 1.27 nM), 100 nL of which was added to the corresponding wells of the cell plate. The cell plate was then placed in a carbon dioxide incubator and incubated for 7 days.
3) 20 μL of Promega CellTiter-Glo reagent was added to each well of the cell plate, and shaken for 10 minutes away from light at room temperature to stabilize the luminescence signal. Readings were performed using a PerkinElmer Envision Multi-label Analyzer.
Table 1 provides the inhibitory activity of the compounds of the present invention against the proliferation of H358 cells.

[1] = test system: LU-01-0393 lung cancer patient-derived tumor tissue xenograft (PDX); experiment: In vivo pharmacodynamic study (1), LU-01-0393 PDX; parameters: species or system BALB/c nude mice; details: 60 mg/kg orally daily
Protocol: The in vivo pharmacodynamic experiments were performed on the BALB/c nude mice implanted subcutaneously with the LU-01-0393 lung cancer patient-derived tumor tissue xenograft (PDX).
BALB/c nude mice, female, 6-8 weeks, weighing approximately 17-21 g, were placed in a single ventilated cage (5 mice per cage) under a special pathogen free environment. All of the cages, beddings and water were disinfected before use. All of the animals were permitted free access to a standard certified commercial laboratory diet. A total of 36 mice purchased from Vital River Laboratory Animal Co., LTD, Beijing were used for the study. Each mouse was implanted subcutaneously with a tumor LU-01-0393 FP4 section (20-30 mm^3) in the right back for tumor growth. The dosing initiated when the average tumor volume reached about 150-200 mm^3. The tumor volume was measured twice a week using a two-dimensional caliper, and the volume was measured in mm^3, calculated by the following the formula: V=0.5 a×b^2, wherein, a and b were the long and short diameters of the tumor, respectively. The antitumor efficacy was determined by dividing the average increase in the tumor volume of the animals treated with the compound by the average increase in the tumor volume of the untreated animals.

[2] = Thermodynamic solubility test (shake-flask, HPLC); type: physicochemical; details: phosphate buffer, aqueous buffer, thermodynamic from solid; QC samples, pH 7.4; read-out: Thermodynamic solubility pH 7.4
Protocol: The thermodynamic solubility of the compounds was determined by the shake-flask method and HPLC. The solubility of the compounds is an important property that affects drug screening of compounds and the absorption of compounds in animals and humans. A saturated solution of the compound was first given and quantitatively tested by HPLC to obtain the solubility of the compound.
50 mM phosphate buffer solution, pH 7.4.
Not less than 2 mg of the sample powder was weighed into a vial of Whatman miniuniprep. If test of the thermodynamic solubility of a sample in multiple buffer solutions is required, an individual vial is required for each test.
450 μL of the buffer solution (pH 7.4) was added to each Whatman miniuniprep vial.
After the addition of the buffer solution, the Whatman miniuniprep cap with a filter was mounted and pressed above the liquid level so that the filter could contact with the buffer solution during shaking.
And the observation of the solution was recorded.
It was shaked at 550 RPM for 24 hours at room temperature (about 22 to 25° C.).
The Whatman Miniunipreps filter cap was pressed to the bottom to give the filtrate of the sample solubility solution. All sample vials should be filtered before and after insoluble substances and their leakage.
The buffer was diluted 50 folds to give a sample diluent.
Three UV standards from low to high concentration were injected into HPLC, followed by the injection of the dilutions and supernatants of the tested compounds. The tested sample was injected twice.

physchem = details: phosphate buffer, pH 7.4, aqueous buffer, kinetic from dmso stock
[3] = test system: non-small cell lung cancer NCI-H358 model; experiment: In vivo pharmacodynamic study (2), NCI-H358 model, tumor volume; parameters: species or system BALB/c nude mice; details: 60 mg/kg orally daily, Table 6-1
Protocol: (§4) The in vivo pharmacodynamic experiments were performed on the BALB/c nude mice implanted subcutaneously with the non-small cell lung cancer NCI-H358 model.
(§5) All of the cages, beddings and water were disinfected before use. All of the animals were permitted free access to a standard certified commercial laboratory diet. A total of 86 mice purchased from Vital River Laboratory Animal Co., LTD, Beijing were used for the study. The animal information of the experiments in Example 34 was as follows: BALB/c nude mice, female, 6-8 weeks, weighing approximately 16-18 g, were placed in a single ventilated cage (4 mice per cage) under a special pathogen free environment. All of the cages, beddings and water were disinfected before use. All of the animals were permitted free access to a standard certified commercial laboratory diet. A total of 56 mice purchased from Shanghai Lingchang Biotechnology Co., Ltd. were used for the study.
(§6) Each mouse was implanted subcutaneously with NCI-H358 tumor cells in the right back for tumor growth. The dosing initiated when the average tumor volume reached about 100-200 mm^3. […] The tumor volume was measured twice a week using a two-dimensional caliper, and the volume was measured in mm^3, calculated by the following the formula: V=0.5 a×b^2, wherein, a and b were the long and short diameters of the tumor, respectively. The antitumor efficacy was determined by dividing the average increase in the tumor volume of the animals treated with the compound by the average increase in the tumor volume of the untreated animals, and the safety of the compound was determined by the change in the body weight of the animal treated with the compound.
TGI: Tumor Growth Inhibition.

[4] = In vivo pharmacodynamic study (2), NCI-H358 model, animal weight; parameters: species or system BALB/c nude mice; details: 60 mg/kg orally daily
Protocol: as §4, §5, §6

[5] = Two-way permeability evaluation assay of Caco-2 cells; details: human, Caco-2, pH 7.4
Caco-2 cells [6] = experiment: as above; details: Caco-2
[7] = Metabolic stability in human liver microsomes; type: in vitro ADME; details: 0.5 mg/mL protein, read-out: Human T1/2
Protocol: (§7) This assay is used to test the metabolic stability of tested substances in rats, mice and human liver microsomes.
(§8) 1) The tested compound with concentration of 1 μM was co-incubated with liver microsomes with a protein concentration of 0.5 mg/mL under a reducing coenzyme II regeneration system in a 37° C. water bath.
(§9) 2) The positive controls include: testosterone (3A4 substrate), propafenene (2D6 substrate) and diclofenac (2C9 substrate). The incubation condition of the positive controls was consistent with that of the compound.
(§10) 3) The reaction time points were: 0, 5, 10, 20, 30 and 60 minutes, and the reaction is terminated at the corresponding time point using a termination solution containing an internal standard. The compounds were also incubated with microsomes for 60 minutes without a reducing coenzyme II regeneration system and served as a negative control.
(§11) 4) Each time point was a single point (n=1).
(§12) 5) The sample was determined by LC/MS/MS, and the compound concentration was shown as the ratio of the peak area of the compound to the peak area of the internal standard (non-standard).
(§13) 6) In the project report summary, the half-life and the clearance rate would be calculated.

[8] = Metabolic stability in rat liver microsomes; type: in vitro ADME; details: 0.5 mg/mL protein, read-out: Rats T1/2
Protocol: as §7, §8, §9, §10, §11, §12, §13

[9] = Metabolic stability in mouse liver microsomes; type: in vitro ADME; details: 0.5 mg/mL protein, read-out: Mice T1/2
Protocol: as §7, §8, §9, §10, §11, §12, §13

Caco-2 cells [10] = test system: Caco-2 cells

T1 sequence (P11802 whole entry): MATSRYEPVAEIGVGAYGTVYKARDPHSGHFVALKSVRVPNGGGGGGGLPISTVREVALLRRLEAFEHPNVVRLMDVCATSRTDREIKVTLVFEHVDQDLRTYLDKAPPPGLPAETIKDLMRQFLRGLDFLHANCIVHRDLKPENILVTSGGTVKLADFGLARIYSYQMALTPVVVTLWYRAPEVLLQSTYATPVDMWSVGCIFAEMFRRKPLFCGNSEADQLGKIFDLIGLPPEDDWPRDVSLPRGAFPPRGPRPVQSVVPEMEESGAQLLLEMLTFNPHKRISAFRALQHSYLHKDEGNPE
T1 sequence (P24385 whole entry partner): as the sequence (P24385 whole entry partner) above

Compound: CC(=O)c1c(C)c2cnc(Nc3cnc(N4CCN(C(C)C)[C@@H](C)C4)cn3)cc2n(C2CCCC2)c1=O [Example 11]
IC50 (CDK4/cyclin D1): 5.6 nM | IC50 (CDK6/cyclin D1): 3.1 nM | IC50 (NCI-H358 cells): 278 nM

Compound: CC(=O)c1c(C)c2cnc(Nc3cnc(N4CCNCC4)cn3)cc2n(C2CCCC2)c1=O [Example 1, 3-acetyl-1-cyclopentyl-4-methyl-7-[(5-piperazin-1-ylpyrazin-2-yl)amino]-1,6-naphthyridin-2-one]
Gross tumor volume Day 0 ([1]; Day 0): 144 mm^3 | Gross tumor volume Day 7 ([1]; Day 7): 132 mm^3 | Gross tumor volume Day 14 ([1]; Day 14): 182 mm^3 | Gross tumor volume Day 20 ([1]; Day 20): 212 mm^3

Compound: NC(=O)N1c2ccccc2C=Cc2ccccc21 [Carbamazepine, reference compound]
solubility thermodynamic at 24 h [2]: 450 ± 60 µM (≈ 106 µg/mL) | solubility kinetic at 24 h (physchem): 180 ± 15 µM (≈ 42.5 µg/mL)

Compound: CC(=O)c1c(C)c2cnc(Nc3cnc(N4CCN(C(C)C)CC4)cn3)cc2n(C2CCCC2)c1=O [Example 3]
IC50 (CDK4/cyclin D1): 6.1 nM | IC50 (CDK6/cyclin D1): 2.9 nM | IC50 (NCI-H358 cells): 176 nM | Gross tumor volume, 0 day [3]: 152 mm^3 | Gross tumor volume, 7 days [3]: 141 mm^3 | Gross tumor volume, 14 days [3]: 159 mm^3 | Gross tumor volume, 17 days [3]: 136 mm^3 | Changes in animal weight, 0 days [4]: 0.0% | Changes in animal weight, 7 days [4]: −1.0% | Changes in animal weight, 14 days [4]: 0.5% | Changes in animal weight, 17 days [4]: 0.8% | solubility kinetic at 24 h (physchem): 171 µM (≈ 83.7 µg/mL) | Papp A→B at 2 h, 2 μM [5]: 10.9 ×10⁻⁶ cm/s | Papp B→A at 2 h, 2 μM [5]: 12.4 ×10⁻⁶ cm/s | efflux ratio at 2 h, 2 μM [5]: 1.14 | Category Efflux transporter substrate (Caco-2 cells [6]): Less | Category Permeability (Caco-2 cells [6]): High

Compound: CC(=O)c1c(C)c2cnc(Nc3cnc(N4CCN(C)C(C)(C)C4)cn3)cc2n(C2CCCC2)c1=O [Example 14]
IC50 (CDK4/cyclin D1): 7.1 nM | IC50 (CDK6/cyclin D1): 2.4 nM | IC50 (NCI-H358 cells): 197 nM

Compound: CC(=O)c1c(C)c2cnc(Nc3cnc(N4CC5CCC(C4)N5C)cn3)cc2n(C2CCCC2)c1=O [Example 19]
IC50 (CDK4/cyclin D1): 7 nM | IC50 (CDK6/cyclin D1): 3.7 nM | IC50 (NCI-H358 cells): 214 nM

Compound: CCN1CCN(Cc2ccc(Nc3ncc(F)c(-c4cc(F)c5nc(C)n(C(C)C)c5c4)n3)nc2)CC1 [LY2835219, Abemaciclib]
half-life at 1 μM [7]: 2.69 min | half-life at 1 μM [8]: 6.34 min | half-life at 1 μM [9]: 2.36 min | Gross tumor volume, 0 day [3]: 152 mm^3 | Gross tumor volume, 7 days [3]: 97 mm^3 | Gross tumor volume, 14 days [3]: 73 mm^3 | Gross tumor volume, 17 days [3]: 60 mm^3 | Changes in animal weight, 0 days [4]: 0.0% | Changes in animal weight, 7 days [4]: −2.9% | Changes in animal weight, 14 days [4]: −3.5% | Changes in animal weight, 17 days [4]: −3.5% | Category Efflux transporter substrate (Caco-2 cells [10]): Possible | Category Permeability (Caco-2 cells [6]): Medium

The next lines start with the values.

IC50 (CDK4/cyclin D1): 8.3 nM | IC50 (CDK6/cyclin D1): 3.5 nM | IC50 (NCI-H358 cells): 295 nM
Compound: CC(=O)c1c(C)c2cnc(Nc3cnc(C4CCNCC4)cn3)cc2n(C2CCCC2)c1=O [Example 28]

IC50 (CDK4/cyclin D1): 5.06 nM | IC50 (CDK6/cyclin D1): 2.97 nM | IC50 (NCI-H358 cells): 189 nM
Compound: CC(=O)c1c(C)c2cnc(Nc3cnc(N4CCN(CCN)CC4)cn3)cc2n(C2CCCC2)c1=O [Example 35]

IC50 (CDK4/cyclin D1): 8.62 nM | IC50 (CDK6/cyclin D1): 4.66 nM | IC50 (NCI-H358 cells): 153 nM
Compound: CC(=O)c1c(C)c2cnc(Nc3cnc(N4CCN(CCO)CC4)cn3)cc2n(C2CCCC2)c1=O [Example 33]

IC50 (CDK4/cyclin D1): 9.1 nM | IC50 (CDK6/cyclin D1): 3.4 nM | IC50 (NCI-H358 cells): 196 nM
Compound: CC(=O)c1c(C)c2cnc(Nc3cnc(N4CCN[C@@H](C)C4)cn3)cc2n(C2CCCC2)c1=O [Example 9, 3-acetyl-1-cyclopentyl-4-methyl-7-[[5-[(3S)-3-methylpiperazin-1-yl]pyrazin-2-yl]amino]-1,6-naphthyridin-2-one]

IC50 (CDK4/cyclin D1): 5.7 nM | IC50 (CDK6/cyclin D1): 3.1 nM | IC50 (NCI-H358 cells): 262 nM
Compound: CC(=O)c1c(C)c2cnc(Nc3cnc(N4CCN(C(C)C)C(C)(C)C4)cn3)cc2n(C2CCCC2)c1=O [Example 15]

Source: patent US10676474B2, “1,6-naphthyridine derivatives as CDK4/6 inhibitor” (CSTONE PHARMACEUTICALS, priority 2016, dated 2020)
